Experimental data published in ChEMBL document CHEMBL1150850, “Cytotoxic principles from Ventilago leiocarpa” (J Nat Prod, 2001).
Values belong to the compound of their own block, whether it stands above or below them.

How the values were obtained:
Raji [1] = assay: Growth inhibition of human Raji cells assessed as [3H]thymidine incorporation at 6.25 uM after 3 days by scintillation counting; type: functional; conditions: read-out: GI
HeLa [2] = assay: Inhibition of human HeLa cell proliferation assessed as [3H]thymidine incorporation after 3 days by scintillation counting; type: functional, cell-based
WISH [3] = assay: Growth inhibition of human WISH cells assessed as [3H]thymidine incorporation at 12.5 uM after 3 days by scintillation counting; type: functional; conditions: read-out: GI
Vero [4] = assay: Growth inhibition of african green monkey Vero cells assessed as [3H]thymidine incorporation at 12.5 uM after 3 days by scintillation counting; type: cell-based; conditions: chlorocebus sabaeus, 72 h
HeLa [5] = assay: Growth inhibition of human HeLa cells assessed as [3H]thymidine incorporation at 100 uM after 3 days by scintillation counting; type: functional; conditions: read-out: GI
WISH [6] = assay: Growth inhibition of human WISH cells assessed as [3H]thymidine incorporation at 100 uM after 3 days by scintillation counting; type: functional; conditions: read-out: GI
Calu-1 [7] = assay: Growth inhibition of human Calu1 cells assessed as [3H]thymidine incorporation at 50 uM after 3 days by scintillation counting; type: functional; conditions: read-out: GI
K562 [8] = assay: Growth inhibition of human K562 cells assessed as [3H]thymidine incorporation at 100 uM after 3 days by scintillation counting; type: functional; conditions: read-out: GI
[9] = Growth inhibition of african green monkey Vero cells assessed as [3H]thymidine incorporation at 50 uM after 3 days by scintillation counting; type: cell-based; conditions: chlorocebus sabaeus, read-out: GI
HeLa [10] = assay: Growth inhibition of human HeLa cells assessed as [3H]thymidine incorporation at 12.5 uM after 3 days by scintillation counting; type: functional; conditions: read-out: GI
WISH [11] = assay: Growth inhibition of human WISH cells assessed as [3H]thymidine incorporation at 6.25 uM after 3 days by scintillation counting; type: functional; conditions: read-out: GI
[12] = Growth inhibition of african green monkey Vero cells assessed as [3H]thymidine incorporation at 25 uM after 3 days by scintillation counting; type: cell-based; conditions: chlorocebus sabaeus, read-out: GI
Vero [13] = assay: Inhibition of african green monkey Vero cell proliferation assessed as [3H]thymidine incorporation after 3 days by scintillation counting; type: cell-based; conditions: Chlorocebus sabaeus
HeLa [14] = assay: Growth inhibition of human HeLa cells assessed as [3H]thymidine incorporation at 25 uM after 3 days by scintillation counting; type: functional; conditions: read-out: GI
Calu-1 [15] = assay: Growth inhibition of human Calu1 cells assessed as [3H]thymidine incorporation at 100 uM after 3 days by scintillation counting; type: functional; conditions: read-out: GI
Raji [16] = assay: Growth inhibition of human Raji cells assessed as [3H]thymidine incorporation at 50 uM after 3 days by scintillation counting; type: functional; conditions: read-out: GI
WISH [17] = assay: Growth inhibition of human WISH cells assessed as [3H]thymidine incorporation at 50 uM after 3 days by scintillation counting; type: functional; conditions: read-out: GI
K562 [18] = assay: Inhibition of human K562 cell proliferation assessed as [3H]thymidine incorporation after 3 days by scintillation counting; type: functional, cell-based
HeLa [19] = assay: Growth inhibition of human HeLa cells assessed as [3H]thymidine incorporation at 50 uM after 3 days by scintillation counting; type: functional; conditions: read-out: GI
Raji [20] = assay: Inhibition of human Raji cell proliferation assessed as [3H]thymidine incorporation after 3 days by scintillation counting; type: functional, cell-based
WISH [21] = assay: Inhibition of human WISH cell proliferation assessed as [3H]thymidine incorporation after 3 days by scintillation counting; type: functional, cell-based
Raji [22] = assay: Growth inhibition of human Raji cells assessed as [3H]thymidine incorporation at 25 uM after 3 days by scintillation counting; type: functional; conditions: read-out: GI
Calu-1 [23] = assay: Growth inhibition of human Calu1 cells assessed as [3H]thymidine incorporation at 6.25 uM after 3 days by scintillation counting; type: functional; conditions: read-out: GI
Raji [24] = assay: Growth inhibition of human Raji cells assessed as [3H]thymidine incorporation at 12.5 uM after 3 days by scintillation counting; type: functional; conditions: read-out: GI
WISH [25] = assay: Growth inhibition of human WISH cells assessed as [3H]thymidine incorporation at 25 uM after 3 days by scintillation counting; type: functional; conditions: read-out: GI
Calu-1 [26] = assay: Growth inhibition of human Calu1 cells assessed as [3H]thymidine incorporation at 25 uM after 3 days by scintillation counting; type: functional; conditions: read-out: GI
Raji [27] = assay: Growth inhibition of human Raji cells assessed as [3H]thymidine incorporation at 100 uM after 3 days by scintillation counting; type: functional; conditions: read-out: GI
HeLa [28] = assay: Growth inhibition of human HeLa cells assessed as [3H]thymidine incorporation at 6.25 uM after 3 days by scintillation counting; type: functional; conditions: read-out: GI
[29] = Growth inhibition of african green monkey Vero cells assessed as [3H]thymidine incorporation at 6.25 uM after 3 days by scintillation counting; type: cell-based; conditions: chlorocebus sabaeus, read-out: GI
Calu-1 [30] = assay: Growth inhibition of human Calu1 cells assessed as [3H]thymidine incorporation at 12.5 uM after 3 days by scintillation counting; type: functional; conditions: read-out: GI
[31] = Growth inhibition of african green monkey Vero cells assessed as [3H]thymidine incorporation at 100 uM after 3 days by scintillation counting; type: cell-based; conditions: chlorocebus sabaeus, read-out: GI
Calu-1 [32] = assay: Inhibition of human Calu1 cell proliferation assessed as [3H]thymidine incorporation after 3 days by scintillation counting; type: functional, cell-based

Structure (SMILES): Cc1cc(O)c2c(c1)C(=O)c1cc(O)cc(O)c1C2=O [EMODIN]
inhibition of growth at 6.25 µM (Raji [1]): 0.3%
IC50 (HeLa [2]): 15.6 µM
inhibition of growth at 12.5 µM (WISH [3]): 22%
growth inhibition (GI) (Vero [4]): 13.7%
inhibition of growth at 100 µM (HeLa [5]): 100%
inhibition of growth at 100 µM (WISH [6]): 80.7%
inhibition of growth at 50 µM (Calu-1 [7]): 100%
inhibition of growth at 100 µM (K562 [8]): 29.5%
inhibition at 72 h, 50 µM [9]: 64.4%
inhibition of growth at 12.5 µM (HeLa [10]): 41.9%
inhibition of growth at 6.25 µM (WISH [11]): 8.7%
inhibition at 72 h, 25 µM [12]: 26.7%
IC50 (Vero [13]): 40 µM
inhibition of growth at 25 µM (HeLa [14]): 78.3%
inhibition of growth at 100 µM (Calu-1 [15]): 100%
inhibition of growth at 50 µM (Raji [16]): 47.2%
inhibition of growth at 50 µM (WISH [17]): 63.3%
IC50 (K562 [18]): > 100 µM
inhibition of growth at 50 µM (HeLa [19]): 100%
IC50 (Raji [20]): 43.8 µM
IC50 (WISH [21]): 28.8 µM
inhibition of growth at 25 µM (Raji [22]): 45.8%
inhibition of growth at 6.25 µM (Calu-1 [23]): 49.4%
inhibition of growth at 12.5 µM (Raji [24]): 41.2%
inhibition of growth at 25 µM (WISH [25]): 61.9%
inhibition of growth at 25 µM (Calu-1 [26]): 100%
inhibition of growth at 100 µM (Raji [27]): 100%
inhibition of growth at 6.25 µM (HeLa [28]): 24.7%
inhibition at 72 h, 6.25 µM [29]: 3.3%
inhibition of growth at 12.5 µM (Calu-1 [30]): 60.6%
inhibition at 72 h, 100 µM [31]: 69.1%
IC50 (Calu-1 [32]): 6.25 µM

IC50 (HeLa [2]): > 100 µM
IC50 (K562 [18]): > 100 µM
IC50 (Raji [20]): > 100 µM
IC50 (Calu-1 [32]): > 100 µM
Structure (SMILES): COc1cc(O)c2c(c1)C(=O)c1c(O)c(C)cc(O)c1C2=O [PARIETIN]
IC50 (Vero [13]): > 100 µM
IC50 (WISH [21]): > 100 µM

IC50 (HeLa [2]): > 100 µM
IC50 (K562 [18]): > 100 µM
IC50 (Raji [20]): > 100 µM
IC50 (Calu-1 [32]): > 100 µM
Structure (SMILES): COc1cc(C)c(O)c2c1C(=O)c1c(O)cccc1C2=O
IC50 (Vero [13]): > 100 µM
IC50 (WISH [21]): > 100 µM
